# Reference: patent US6376666B1 (Nauchno-Issledovatelsky Institut Farmakologii Rossiiskoi …, priority 1994, dated 2002)
# Marks after values point to notes of the source that are not given here.
# Tests used:
# C57B1/6 mice = experiment: open-field test, C57B1/6 mice (active type of emotional-stress reaction); type: in vivo; parameters: key to Total activity: sum of all locomotor activity counts (crossings + rearings) in 3 min; settings: for Central activity (crossings) / Number of defecations / Peripheral activity (crossings) / Total activity / Vertical activity (rearings): M ± mx; for effect on locomotor activity of C57B1/6 mice in open-field test, in words: i.p., doses that activate Balb/c mice
# Method in brief: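 Male mice, 20-22 g, dosed i.p. in water 30 min before a 3-min open-field test after 1 min in darkness; peripheral, central, rearing and total activity plus defecations recorded; Student t-test. Anxiolysis read as Balb/c activation, sedation as C57B1/6 inhibition.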
# [1] = system: calcium chloride arrhythmia; experiment: calcium chloride arrhythmia in concious rats; type: in vivo; settings: for ED50: Rattus norvegicus, iv, read-out: Calcium chloride arrhythmia ED50 (mean effective dose); for effect on death from lethal ventricular fibrillation, in words: injected 2 min prior calcium chloride
# Method: In these experiments the outbred concious rats 180-200 g of weight were injected with 10% solution of calcium chloride in tail vein at dose range of 250-300 mg/kg.
# [2] = system: ventricular fibrillations; experiment: ventricular fibrillation, 7-min occlusion and reperfusion of coronary artery in anesthetized rats; type: in vivo; settings: for Number of VF (ventricular fibrillations) / Number of LHA (lethality hazardous arrhythmia) / Total numbers of arrhyt. / Severity of arrhythmias: anesthetized rats; for Number of VF (ventricular fibrillations): control 15 of 24; for Number of LHA (lethality hazardous arrhythmia): control 22 of 24; for Total numbers of arrhyt.: control 24 of 24; for Severity of arrhythmias: control 66
# Method: The experiments were conducted in male rats weighing 180-240 g and anesthetized with nembutal (60 mg/kg i.v.) with open chest and artificial respiration. The occlusion of the left coronary artery was performed 1-2 min after experiment beginning with following reperfusion after 7 min. During this period time according to literature data [Krzeminski T., Grzyb J., Kurcok A., Brus R.: Pol.J.Pharmacol., 1992, 44, Suppl., p.169-170] the maximum number of ventricular fibrillations (70-100%) were registered. The ECG in the 2nd standard lead was recorded in “Mingograph-81”. The number of ventricular fibrillations during occlusion and reperfusion periods, the life menacing arrhythmia (fibrillation+paroxysmal ventricular tachycardia) and total number of arrhythmias were calculated. The known antiarrhythmic drug bonnecor was used as the reference agent [Grigorieva E. K., Gorbunova V. V. in: “New antiarrhythmic drug—bonnecor (the pharmacology and clinical usage)”, M., 1993, p.64-67]. The compounds were injected i.v. at the following doses: bonnecor—1,0 mg/kg, compound IX—2,0 mg/kg, compound XX—1,0 mg/kg. The control animals were administered with the equivalent volume of physiological solution (1,0 ml/kg). 4 series of experiments were carried out in 80 rats. The results were assessed according to the method of point scale: the absence of arrhythmia—0 point, extrasystole—1 point, paroxysmal ventricular tachycardia—2 points, ventricular fibrillation—3 points, fibrillation observed during the occlusion of coronary vessel—4 points. For statistical analysis the Fisher's exact probability and Wilconson's methods were used.
# [Krzeminski T., Grzyb J., Kurcok A., Brus R.: Pol.J.Pharmacol., 1992, 44, Suppl., p.169-170] have shown that 7 min occlusion with following reperfusion of coronary artery in anesthetized rats produced the ventricular fibrillation (68-100%). Defibrotide and prostacycline decreased the number of fibrillations. We have studied the antifibrillator activity of some derivatives of 2-mercaptbenzimidazole in this model with disturbances of heart rhythm. Bonnecor (1,0 mg/kg) was used as the reference drug. It is well known that this agent produces apronouncedantifibrillatoryactivity [Grigorieva E. K., Gorbunova V. V. in: “New antiarrhythmic drug-bonnecor (the pharmacology and clinical usage)”, M., 1993, p.64-67].
# adrenaline arrhythmia = adrenaline arrhythmia in concious rabbits; settings: given 2 min before arrhythmogenic dose of adrenaline
# Method: Adrenaline arrhythmia. The 0,1% solution of adrenaline hydrochloride was injected to the marginal ear's vein of rabbit weighing 2,5-3,0 kg at dose ranging 120-150 mcg/kg which induced cardiac rhythm disturbances of two types.
# The tested compound was injected in 3 ml of distilled water 30 min after determination of arrhythmogenic dose of adrenaline and the ECG was recorded in 2nd standard lead. 2 min after administration of tested compound the arrhythmogenic dose of adrenaline was injected.
# [3] = concious rats, given 2 min prior calcium chloride 250-300 mg/kg i.v.
smiles,measurement,setting,value
"CCOc1ccc2nc(SCCN3CCOCC3)[nH]c2c1 [XII, 2-[2-(Morpholino)ethylthio]-5-ethoxybenzimidazole]",Central activity (crossings),C57B1/6 mice; 0.1 mg/kg i.p.,18.3 ± 1.9
same,Number of defecations,C57B1/6 mice; 0.1 mg/kg i.p.,1.3 ± 0.3
same,Peripheral activity (crossings),C57B1/6 mice; 0.1 mg/kg i.p.,92.9 ± 5.4
same,Total activity,C57B1/6 mice; 0.1 mg/kg i.p.,123.6 ± 8.4
same,Vertical activity (rearings),C57B1/6 mice; 0.1 mg/kg i.p.,12.5 ± 1.1
same,Central activity (crossings),C57B1/6 mice; 1.0 mg/kg i.p.,20.4 ± 2.3
same,Number of defecations,C57B1/6 mice; 1.0 mg/kg i.p.,0.5 ± 0.5
same,Peripheral activity (crossings),C57B1/6 mice; 1.0 mg/kg i.p.,86.6 ± 4.3
same,Total activity,C57B1/6 mice; 1.0 mg/kg i.p.,123.5 ± 8.4
same,Vertical activity (rearings),C57B1/6 mice; 1.0 mg/kg i.p.,16.5 ± 1.8
same,Central activity (crossings),C57B1/6 mice; 10.0 mg/kg i.p.,36.0 ± 4.9
same,Number of defecations,C57B1/6 mice; 10.0 mg/kg i.p.,0.6 ± 0.6
same,Peripheral activity (crossings),C57B1/6 mice; 10.0 mg/kg i.p.,86.6 ± 10.9
same,Total activity,C57B1/6 mice; 10.0 mg/kg i.p.,140.2 ± 19.0
same,Vertical activity (rearings),C57B1/6 mice; 10.0 mg/kg i.p.,17.6 ± 3.2
same,Central activity (crossings),C57B1/6 mice; 20.0 mg/kg i.p.,23.4 ± 4.9
same,Number of defecations,C57B1/6 mice; 20.0 mg/kg i.p.,1.8 ± 0.6
same,Peripheral activity (crossings),C57B1/6 mice; 20.0 mg/kg i.p.,86.4 ± 4.0
same,Total activity,C57B1/6 mice; 20.0 mg/kg i.p.,127.2 ± 11.6
same,Vertical activity (rearings),C57B1/6 mice; 20.0 mg/kg i.p.,17.4 ± 2.7
same,Central activity (crossings),C57B1/6 mice; 30.0 mg/kg i.p.,26.3 ± 10.2
same,Number of defecations,C57B1/6 mice; 30.0 mg/kg i.p.,0.1 ± 0.1
same,Peripheral activity (crossings),C57B1/6 mice; 30.0 mg/kg i.p.,53.0 ± 5.7
same,Total activity,C57B1/6 mice; 30.0 mg/kg i.p.,87.9 ± 17.5
same,Vertical activity (rearings),C57B1/6 mice; 30.0 mg/kg i.p.,8.3 ± 4.6
same,Central activity (crossings),C57B1/6 mice; 50.0 mg/kg i.p.,13.9 ± 5.3
same,Number of defecations,C57B1/6 mice; 50.0 mg/kg i.p.,0.5 ± 0.3
same,Peripheral activity (crossings),C57B1/6 mice; 50.0 mg/kg i.p.,67.1 ± 11.9
same,Total activity,C57B1/6 mice; 50.0 mg/kg i.p.,90.1 ± 19.8
same,Vertical activity (rearings),C57B1/6 mice; 50.0 mg/kg i.p.,9.1 ± 2.6
same,"effect on locomotor activity of C57B1/6 mice in open-field test, in words",C57B1/6 mice,without any changes in locomotor activity
"CN(C)CCSc1nc2ccccc2n1CCc1ccccc1 [Compound XX, 1-(β-Phenylethyl)-2-[2-(dimethylamino)ethylthio]-benzimidazole]",ED50,[1]; [3],2.03 mg/kg
same,Calcium chloride arrhythmia ED50 (mean effective dose),[1]; [3],2.0 mg/kg
same,"effect on death from lethal ventricular fibrillation, in words",[1]; concious rats,prevents the death of animals
same,Number of VF (ventricular fibrillations),"[2]; 1 mg/kg i.v., 18 animals",7^
same,Number of LHA (lethality hazardous arrhythmia),"[2]; 1 mg/kg i.v., 18 animals",11*
same,Total numbers of arrhyt.,"[2]; 1 mg/kg i.v., 18 animals",13**
same,Severity of arrhythmias,"[2]; 1 mg/kg i.v., 18 animals",34* points
same,Adrenaline arrhythmia. Range of active doses,adrenaline arrhythmia,0.2−0.7 mg/kg
"CCOc1ccc2nc(SCCN(CC)CC)[nH]c2c1 [Compound IX, 2-[2-(Diethylamino)ethylthio]-5-ethoxybenz-imidazole]",ED50,[1]; [3],1 mg/kg
same,"effect on death from lethal ventricular fibrillation, in words",[1]; concious rats,prevents the death of animals
same,"activity relative to lidocaine, calcium chloride arrhythmia","[1]; rats, higher than lidocaine","7,5 folds"
same,"activity relative to novocainamide, calcium chloride arrhythmia","[1]; rats, higher than novocainamide",50 folds
same,"effect on locomotor activity of C57B1/6 mice in open-field test, in words",C57B1/6 mice,without any changes in locomotor activity
same,"antifibrillatory effect, in words","[2]; anesthetized rats i.v., bonnecor 1,0, IX 2,0, X (printed) 1,0 mg/kg",reduced the number of both the ventricular fibrillations and lethality hazardous arrhythmia
same,Number of VF (ventricular fibrillations),"[2]; 2 mg/kg i.v., 20 animals",4*
same,Number of LHA (lethality hazardous arrhythmia),"[2]; 2 mg/kg i.v., 20 animals",12*
same,Total numbers of arrhyt.,"[2]; 2 mg/kg i.v., 20 animals",17^
same,Severity of arrhythmias,"[2]; 2 mg/kg i.v., 20 animals",32** points
same,Adrenaline arrhythmia. Range of active doses,adrenaline arrhythmia,0.3 to 0.7 mg/kg
